According to patent publication EP4729529A1, “PREPARATION OF PEPTIDE INHIBITOR OF INTERLEUKIN-23 RECEPTOR AND USE THEREOF” (Xizang Haisco Pharmaceutical Co., Ltd., priority 2023, dated 2024):
Positions of bridges follow the written chain, without caps; N, C: chain ends. Non-standard residues stand in square brackets, D forms with d. Residues, ends and D or L forms follow the SMILES beside them. Phe(4-OC2H4NH2,2,3-(CH2)3) = NCCOc1ccc(C[C@H](N)C(=O)O)c2c1CCC2; Trp(7-Me) = Cc1cccc2c(C[C@H](N)C(=O)O)c[nH]c12; 2Nal = N[C@@H](Cc1ccc2ccccc2c1)C(=O)O; 3Pal = N[C@@H](Cc1cccnc1)C(=O)O; Pen = CC(C)(S)[C@H](N)C(=O)O; Thp = NC1(C(=O)O)CCOCC1; Sar = CNCC(=O)O

Tests used:
[1] = Test of stability in plasma, rat; assay type: in vitro ADME; conditions: read-out: Residual rate% at 37°C for 6 h
Experimental: (§1) 5. Test of stability in plasma
(§2) In this experiment, plasmas of five species, including human, monkey, dog, rat, and mouse, were used to evaluate the stability in plasma of Compound 7.
(§3) A plasma sample was prepared at a concentration level of 1000 ng/mL, and dispensed into EP tubes at time points 0 h and 6 h. Acetonitrile solution containing an internal standard was added directly to the 0 h sample; and the 6 h sample was placed at 37°C for the corresponding time, and then added with an acetonitrile solution containing internal standard. The concentration of the test compound in the sample was measured by the LC-MS/MS method, and the residual rate was calculated from the ratio of the peak areas of the test compound to the internal standard in the time point sample and the 0 h sample.
(§4) Experimental results: At the concentration level of 1000 ng/mL under the test conditions, the residual rates of the test Compounds were shown in Table 6 below. Table 6. Residual rate% at 37°C for 6 h

[2] = Test of stability in plasma, mouse; assay type: in vitro ADME; conditions: read-out: Residual rate% at 37°C for 6 h
Experimental: as §1, §2, §3, §4

[3] = Test of stability in plasma, human; assay type: in vitro ADME; conditions: read-out: Residual rate% at 37°C for 6 h
Experimental: as §1, §2, §3, §4

IL-23α/IL-12β and IL-23R = target: T1, IL-23α/IL-12β and IL-23R (Homo sapiens, UniProt Q5VWK5); experiment: IL-23α/IL-12β and IL-23R binding assay (TR-FRET/HTRF); conditions: inhibition of the binding of IL-23α/IL-12β to IL-23R, TR-FRET; both proteins 0.3 nM
T1 construct: purchased ACRO ILR-H82F3 (IL-23R); ILB-H52W5 (IL-23α/IL-12β)
T1 sequence (Q5VWK5 24-353 limits assumed): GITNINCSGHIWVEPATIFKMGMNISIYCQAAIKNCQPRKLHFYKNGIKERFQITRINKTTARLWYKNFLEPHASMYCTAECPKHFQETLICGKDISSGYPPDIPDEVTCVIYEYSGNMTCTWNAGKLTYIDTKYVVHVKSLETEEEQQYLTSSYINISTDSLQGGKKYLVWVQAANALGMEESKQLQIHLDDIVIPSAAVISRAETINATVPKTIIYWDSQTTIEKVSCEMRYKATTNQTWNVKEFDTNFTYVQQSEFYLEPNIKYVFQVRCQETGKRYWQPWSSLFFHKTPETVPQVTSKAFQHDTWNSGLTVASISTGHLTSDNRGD
Method in brief: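 TR-FRET with IL-23α/IL-12β and IL-23R each at 0.3 nM in PPI buffer; compound preincubated with IL-23α/IL-12β 60 min at 25°C, then IL-23R and Tb/d2 detection reagents added for 60 min. HTRF 665/620 ratio; IC50 by nonlinear regression.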

[4] = Pharmacokinetic test in mice (intravenous and intragastric, plasma LC-MS/MS); assay type: in vivo; conditions: male, mouse, Balb/c mice
Experimental: 4. Pharmacokinetic test in mice
4.1. Experimental animals: Male Balb/c mice (20-25 g, 18 mice/compound) were purchased from Chengdu Dossy Experimental Animals Co., Ltd.
4.2. Experimental design: On the day of the experiment, the Balb/c mice were randomly grouped by body weight. The animals were fasted with water available for 12-14 h one day before the administration, and were fed 4 h after the administration. Table 4. Administration information
Before and after administration, 0.06 mL of blood was taken from the orbit under isoflurane anaesthesia, and placed in an EDTAK2 centrifuge tube. The tube was centrifuged at 5000 rpm at 4°C for 10 min, and plasma was collected. The blood collection time points for the intravenous group and intragastric group were both 0 min, 5 min, 15 min, 30 min, 1 h, 2 h, 4 h, 6 h, 8 h, and 24 h. Before analysis and detection, all samples were stored at -80°C, and the samples were quantitatively analysed by LC-MS/MS. Table 5. Pharmacokinetic parameters of test compounds in mouse plasma

Compound `CC(=O)NCCCC[C@@H]1NC(=O)[C@H](Cc2c[nH]c3c(C)cccc23)NC(=O)[C@H]([C@@H](C)O)NC(=O)[C@H](Cc2c[nH]cn2)NC(=O)[C@@H](NC(C)=O)C(C)(C)SSC(C)(C)[C@@H](C(=O)N[C@@H](Cc2ccc(OCCN)c3c2CCC3)C(=O)N[C@@H](Cc2ccc3ccccc3c2)C(=O)NC2(C(=O)N[C@@H](CCC(=O)O)C(=O)N[C@@H](CC(N)=O)C(=O)N[C@@H](Cc3cccnc3)C(=O)N(C)CC(N)=O)CCOCC2)NC1=O` [Compound 7] (Ac-[Pen]HT[Trp(7-Me)]K(Ac)[Pen][Phe(4-OC2H4NH2,2,3-(CH2)3)][2Nal][Thp]EN[3Pal][Sar]-NH2; disulfide 1-6) has a remaining at 6 h, 1000 ng/mL [1] of 98.3%, a remaining at 6 h, 1000 ng/mL [2] greater than 99% and a remaining at 6 h, 1000 ng/mL [3] greater than 99%. It also gave an IC50 (IL-23α/IL-12β and IL-23R) of 53.9 pM, an AUC(0-t) ([4]; iv, i.v. (1 mg/kg)) of 4720 ± 512 ng·h/mL and a clearance ([4]; iv, i.v. (1 mg/kg)) of 3.52 ± 0.38 mL/min/kg. For the same compound, the Vd ([4]; iv, i.v. (1 mg/kg), read-out: Vdss) was 0.261 ± 0.01 L/kg, the AUC(0-t) ([4]; po, i.g. (10 mg/kg)) was 227 ± 100 ng·h/mL and the bioavailability ([4]; po, i.g. (10 mg/kg)) was 0.482 ± 0.21%.
